In doi:10.1101/2025.10.06.680748v1 (bioRxiv, 2025):

Target: T1, Fibroblast Activation Protein Alpha (FAP) (Homo sapiens, UniProt Q12884)
T1 sequence (Q12884 27-760 limits assumed): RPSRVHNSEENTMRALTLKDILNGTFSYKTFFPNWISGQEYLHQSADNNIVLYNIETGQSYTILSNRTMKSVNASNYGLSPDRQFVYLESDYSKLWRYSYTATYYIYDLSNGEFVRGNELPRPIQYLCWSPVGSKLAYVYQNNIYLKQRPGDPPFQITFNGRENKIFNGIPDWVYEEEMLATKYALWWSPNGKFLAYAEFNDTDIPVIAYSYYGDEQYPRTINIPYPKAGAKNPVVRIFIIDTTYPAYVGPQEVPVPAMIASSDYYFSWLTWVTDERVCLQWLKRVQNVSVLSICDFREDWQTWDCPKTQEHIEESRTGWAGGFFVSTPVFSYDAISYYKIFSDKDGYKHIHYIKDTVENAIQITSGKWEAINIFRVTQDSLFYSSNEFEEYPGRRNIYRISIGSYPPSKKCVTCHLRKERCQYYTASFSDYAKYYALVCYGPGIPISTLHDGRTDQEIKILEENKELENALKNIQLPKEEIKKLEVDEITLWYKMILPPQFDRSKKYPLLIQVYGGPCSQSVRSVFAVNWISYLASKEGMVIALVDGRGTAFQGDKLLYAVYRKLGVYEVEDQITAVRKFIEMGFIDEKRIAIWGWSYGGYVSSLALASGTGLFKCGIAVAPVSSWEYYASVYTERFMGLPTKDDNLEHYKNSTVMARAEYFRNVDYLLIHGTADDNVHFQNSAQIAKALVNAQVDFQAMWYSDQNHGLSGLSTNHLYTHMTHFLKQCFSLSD
Assay: FAP substrate kinetics assay with naïve substrate library
Format: biochemical
Conditions: from the observed C-terminal product

Dipeptidyl? (substrate product pair cleaved by FAP as dipeptidyl exopeptidase) | Sequence
Yes | GSNNGQFNMVPLVPR [SL11C_037297]
Yes | GPGVLSEKHAGIEGR [SL11B_022414]
Yes | GPIMPATVSGGIEGR [SL11B_020678]
No | GSFHVPETHSWLVPR [SL11C_008744]
